Data: patent publication US20240335427A1, “SMALL MOLECULE INHIBITION OF DEUBIQUITINATING ENZYME JOSEPHIN DOMAIN CONTAINING 1 (JOSD1) AS A TARGETED THERAPY FOR LEUKEMIAS WITH MUTANT JANUS KINASE 2 (JAK2)” (DANA-FARBER CANCER INSTITUTE, INC., priority 2021, published 2024)

What was measured:
MCL-1 = MCL-1 (Homo sapiens (Human), UniProt Q07820); experiment: MCL-1 expression in HEL cells by western blotting; assay type: cell-based; details: 10-20 μM
Experimental: (§1) With JOSD1 as the prime candidate, JOSD1 binding and inhibition was evaluated by the compounds. First, targeted engagement was confirmed by showing competition with DUB ABP in HEL-FLAG-HA-JOSD1 cells following treatment with the two agents (FIG. 4D). The structures for negative control compounds 66 and 67 are shown below. In addition, the effects of small molecule inhibition of JOSD1 was investigated on MCL-1, an established substrate of JOSD1 (Wu, et al., 2020 Cell Death Differ., 27(1):55-70). […] Other exemplary compounds that inhibit DUBs are listed below in Table 3 (See Supra, ¶ [0063] for structures)

JAK2-V617F = JAK2-V617F (Homo sapiens (Human), UniProt O60674, V617F); experiment: JAK2-V617F protein loss in human AML cell lines by western blotting; assay type: cell-based; details: HEL cells, co-treatment with cycloheximide
Experimental: Immunoblotting and Immunoprecipitation. Protein lysate preparation, immunoblotting, and immunoprecipitation were carried out as previously described (Lamberto, et al., 2017 Cell Chem Biol., 224(12):1490-500 e11). Briefly, 0.7×10^6 cells were treated with compounds 1 and 2 at 0, 5, 10, and 20 μM for 16 or 24 hours, cells were collected, and lysate was prepared in radioimmunoprecipitation assay (RIPA) buffer, JAK family and downstream signaling protein levels were detected by western blotting with the indicated antibodies. For immunoprecipitation, 1 mg protein for each sample was prepared and 1 μg antibody was used, immunoglobulin G (IgG) was added in same amount as nontargeting control.

UCHL1 = UCHL1 (Homo sapiens (Human), UniProt P09936); experiment: UCHL1 biochemical inhibition (ubiquitin hydrolase activity, purified enzyme)
[1] = system: Ba/F3-EPOR-JAK2-V617F-expressing cells; experiment: Ba/F3 cell proliferation (CellTiter Glo); assay type: cell-based, murine
Experimental: Proliferation and Drug Combination Studies. Proliferation and drug combination studies were carried out as previously described (Yang, et al., 2020, British Journal of Cancer, 122:1175-84).
As toxicities can result from small molecule targeting of both oncogenic mutated JAK2 as well as its non-mutated counterpart, a chemical genetics screen was designed and performed of a DUB-focused small molecule inhibitor library with the goal of leveraging crosstalk between phosphorylation and ubiquitination to identify DUB inhibitors able to selectively degrade mutant JAK2 while sparing wt JAK2. Of relevance, activated FLT3 can be selectively degraded over the wt enzyme by inhibition of the DUB, USP10, (Wernig, et al., 2008, Blood, 111(7):3751-9) and similar to FLT3, JAK2 is ubiquitinated in an activation-dependent manner. In brief, the library of known and novel DUB inhibitors was evaluated for ability to suppress growth of Ba/F3-EPOR-JAK2-V617F-expressing cells selectively over Ba/F3-EPOR cells growing in the presence of interleukin-3.
A broader range of compounds 1 and 2, including concentrations lower than 1 μM, were also tested on growth of EPOR-JAK2-V617F-expressing Ba/F3 cells and parental Ba/F3 EpoR+ cells (24 hours treatment on 4000 cells per well) (FIG. 18-FIG. 18B). Cell growth inhibition (FIG. 17A-FIG. 17B, FIG. 18A-FIG. 18B) was tested on Ba/F3-EPOR-JAK2-V617F (-IL-3/WEHI) and parental Ba/F3-EPOR cells (+IL-3/WEHI) plated at 2000 cells per well, at 1, 3 and 10 μM for 24 hours using the Promega CellTiter Glo® assay.

HEL cells = experiment: HEL cell growth inhibition by fresh or aged drug stocks (stability); assay type: cell-based, human; details: stocks stored two to three years at −20° Celsius; 2.5, 5, 10, 20 μM, 24 hours
Experimental: Fresh or aged stocks of compounds 1 and 2 were tested for the ability to inhibit HEL cell growth at 2.5, 5, 10, and 20 μM of each drug after 24 hours (FIG. 19A-FIG. 19B).
The CellTiter Glo® assay was performed using HEL cells seeded at 1000 cells/well of a 96-well plate. The “fresh” drug stocks were obtained frozen (stored at −20° Celsius) within days of executing the proliferation experiment for which results are shown. The “aged” drug stocks were obtained from freeze-thawed stocks serially diluted and stored at −20° Celsius in the laboratory. The “aged” stocks were stored between at least two years to three years at −20° Celsius with little to no freeze-thaw cycles prior to execution of the proliferation experiment for which results are shown. “Aged” stocks may be stored for several years (e.g., at least one year, at least two years, at least three years, at least four years or more) at −20° Celsius prior to use.

[2] = system: native DUBs (UCHL1, USP30 and JOSD1); experiment: Competitive activity-based protein profiling with quantitative mass spectrometry in HEK-293T lysates; assay type: binding; details: block of labeling by DUB activity-based probes
Experimental: Activity Based Protein Profiling (ABPP) assay. DUB targets were investigated using competitive ABPP with quantitative mass spectrometry. The ability to block labeling of 50 DUBs by ubiquitin-based DUB activity-based probes was quantitatively measured in HEK-293T lysates.
DUB ABPP of Compound Targets. Activity-based probes biotin-Ub-PA (UbiQ-076) and biotin-Ub-VME (UbiQ-054) were obtained from UbiQ Bio. DUB Activity based protein profiling was performed using conditions modified from those in Schauer, et al., 2020, Scientific Reports, 10:1-15, based on work by Lawson, et al., 2017 Oncotarget, 8:51296-316. HEK 293T cells were lysed (50 mM Tris pH 8.0, 150 mM NaCl, 5 mM MgC2, 0.5 mM EDTA, 0.5% NP-40, 10% glycerol, 1 mM tris(2-carboxyethyl)phosphine (TCEP), protease and phosphatase inhibitors) and the lysate was clarified by centrifugation, then diluted to 10 mg/mL. 200 μL aliquots were incubated at the indicated compound concentrations or DMSO for 5 hours at room temperature, final DMSO concentration 0.5%. Afterwards, the treated lysates were incubated with 1 μM each of Biotin-Ub-PA and Biotin-Ub-VME for 90 minutes at room temperature. […]
Specifically, quantitative mass spectrometry was utilized to measure the ability of compounds 1 and 2 to block labeling of […] native DUBs by ubiquitin-based DUB activity-based probes in HEK-293T lysates. […]

SOCS1 = SOCS1 (Homo sapiens (Human), UniProt O15524); experiment: SOCS1 expression in HEL cells by western blotting; assay type: cell-based; details: 5 μM
Experimental: as §1

UCHL1, sequence (P09936 whole entry, species assumed): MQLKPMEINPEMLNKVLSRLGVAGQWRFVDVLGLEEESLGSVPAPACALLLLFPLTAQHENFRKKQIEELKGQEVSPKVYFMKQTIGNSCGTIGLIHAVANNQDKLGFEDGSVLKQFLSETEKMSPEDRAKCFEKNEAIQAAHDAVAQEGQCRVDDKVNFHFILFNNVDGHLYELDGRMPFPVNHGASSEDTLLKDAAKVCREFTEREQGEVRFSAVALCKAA

Question: Which results are given for `Cc1noc(C)c1-c1cccc2nc(NC(=O)[C@H]3CCN(C#N)C3)sc12` [Compound 2, (S)-1-cyano-N-(7-(3,5-dimethylisoxazol-4-yl)benzo[d]thiazol-2-yl)pyrrolidine-3-carboxamide]?
Answer: MCL-1 expression (MCL-1): decrease; JAK2-V617F protein half-life (JAK2-V617F): shorten JAK2-V617F protein half-life; UCHL1 biochemical IC50 (range in words) (UCHL1): several hundred; killing of Ba/F3-EPOR-JAK2-V617F cells compared to wt JAK2-expressing parental Ba/F3 cells [1]: selective killing; cell growth inhibition ([1]; 1, 3 and 10 μM, 24 hours, independent experiments): inhibit growth; stability: growth inhibition by aged stocks versus fresh stocks (HEL cells): comparable cell growth inhibition; target engagement of UCHL1, USP30 and JOSD1 [2]: dose-dependent target engagement; SOCS1 expression (SOCS1): decrease
